Results from patent US20080090805A1, “CB-1 MODULATING COMPOUNDS AND THEIR USE” (ACADIA PHARMACEUTICALS INC., priority 2005, published 2008).
Like-named read-outs stand apart in the source and are kept apart here.

Target: CB1 (mutant) (Homo sapiens, UniProt P21554)
Assay: R-SAT functional receptor assay, CB1 (mutant, truncated after amino acid 417)
Type: cell-based
Settings: R-SAT CB1; for IC50: receptor form (mutant or wild-type) not stated; for Emax / % Inhibition: receptor form not stated, relative to SR141716 (100%); for Emax: read-out: % Inhibition
[1] = Appendix A, read-out: pIC50 (converted)

Sequence of CB1 (mutant) (P21554 1-417, change not shown): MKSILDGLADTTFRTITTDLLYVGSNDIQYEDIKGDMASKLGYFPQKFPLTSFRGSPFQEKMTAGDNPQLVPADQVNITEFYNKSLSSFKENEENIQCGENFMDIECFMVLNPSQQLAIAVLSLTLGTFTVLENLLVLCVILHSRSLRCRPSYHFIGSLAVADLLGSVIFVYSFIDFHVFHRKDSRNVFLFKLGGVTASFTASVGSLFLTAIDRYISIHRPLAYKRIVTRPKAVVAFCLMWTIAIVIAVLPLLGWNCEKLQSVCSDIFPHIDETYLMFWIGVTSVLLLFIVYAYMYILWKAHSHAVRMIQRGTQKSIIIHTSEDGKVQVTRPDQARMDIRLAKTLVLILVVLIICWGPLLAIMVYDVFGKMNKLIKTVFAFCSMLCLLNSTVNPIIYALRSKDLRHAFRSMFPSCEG

| SMILES | IC50 [1] | Emax (Appendix A) | % Inhibition (Appendix A) | IC50 (pIC50, Appendix A) |
| --- | --- | --- | --- | --- |
| CCCCNC(=O)c1ccc2c(c1)N=C(c1ccccn1)c1ccccc1S2 [drawing 907] | 15.8 nM | 100% |  |  |
| CC(CNC(=O)c1ccc2c(c1)N=C(c1ccccc1F)c1ccccc1S2)c1ccccc1 (centres unmarked) [drawing 909] | 15.8 nM | 110% |  |  |
| O=C(NCCc1cccc(Cl)c1)c1ccc2c(c1)N=C(c1ccc(Cl)cc1)c1ccccc1S2 [drawing 911] | 15.8 nM | 99% |  |  |
| CCN(CCNC(=O)c1ccc2c(c1)N=C(N1CCCCC1)c1ccccc1S2)c1ccccc1 [drawing 913] | 15.8 nM | 105% |  |  |
| O=C(NN1CCCCC1)c1ccc2c(c1)N=C(c1ccc(Cl)cc1)c1ccccc1S2 [drawing 914] |  |  | 51% |  |
| CCCNC(=O)c1ccc2c(c1)N=C(c1ccc(OC)cc1)c1ccccc1S2 [drawing 915] | 15.8 nM | 112% |  |  |
| O=C(NCc1ccc(F)cc1)c1ccc2c(c1)N=C(C1CCCCC1)c1ccccc1S2(=O)=O [drawing 917] | 15.8 nM | 120% |  |  |
| O=C(NCCc1cccc(Cl)c1)c1ccc2c(c1)N=C(c1ccc(F)cc1)c1ccccc1S2 [drawing 919] | 15.8 nM | 98% |  |  |
| CC(C)NC(=O)c1ccc2c(c1)N=C(c1cccc(Cl)c1)c1ccccc1S2 [drawing 921] | 15.8 nM | 118% |  |  |
| O=C(NCc1ccc(F)cc1)c1ccc2c(c1)N=C(c1ccccc1F)c1ccccc1S2 [drawing 925] | 15.8 nM | 102% |  |  |
| CCCNC(=O)c1ccc2c(c1)N=C(c1sccc1C)c1ccccc1S2 [drawing 927] | 15.8 nM | 99% |  |  |
| O=C(NNCc1ccccc1)c1ccc2c(c1)N=C(c1cccc(Br)c1)c1ccccc1S2 [drawing 928] | 251 nM | 86% |  |  |
| O=C(NN1CCCCC1)c1ccc2c(c1)N=C(c1cccc(F)c1)c1ccccc1S2 [drawing 929] |  | 111% |  | 15.8 nM |
| O=C(NCc1cccnc1)c1ccc2c(c1)N=C(c1ccc(F)cc1)c1ccccc1S2 [drawing 931] | 15.8 nM | 123% |  |  |
| CC(CNC(=O)c1ccc2c(c1)N=C(c1ccc(Cl)cc1)c1ccccc1S2)c1ccccc1 (centres unmarked) [drawing 933] | 20 nM | 106% |  |  |
| O=C(NCCCc1ccccc1)c1ccc2c(c1)N=C(c1ccccc1F)c1ccccc1S2 [drawing 935] | 20 nM | 106% |  |  |
| CCCCNC(=O)c1ccc2c(c1)N=C(C1CCCCC1)c1ccccc1S2 [drawing 937] | 20 nM | 106% |  |  |
| O=C(NCc1cccc(Cl)c1)c1ccc2c(c1)N=C(N1CCCCC1)c1ccccc1S2(=O)=O [drawing 939] |  | 91% |  | 20 nM |
| O=C(NC1CCCCC1)c1ccc2c(c1)N=C(c1cccc(F)c1)c1ccccc1S2 [drawing 941] | 20 nM | 127% |  |  |
| C[C@@H]1CCC[C@H](C)N1NC(=O)c1ccc2c(c1)N=C(c1ccc(F)cc1)c1ccccc1S2 [drawing 943] | 20 nM | 115% |  |  |
| Cc1ccsc1C1=Nc2cc(C(=O)NCCC(C)C)ccc2Sc2ccccc21 [drawing 945] | 20 nM | 106% |  |  |
| Cc1ccc(CNC(=O)c2ccc3c(c2)N=C(c2cccc(F)c2)c2ccccc2S3)o1 [drawing 947] |  | 69% |  | 20 nM |
| CC(C)CNC(=O)c1ccc2c(c1)N=C(c1ccc(Cl)cc1)c1ccc(F)cc1S2 [drawing 949] | 20 nM | 110% |  |  |
| O=C(NC1CCCCC1)c1ccc2c(c1)N=C(c1ccc(F)cc1)c1ccccc1S2 [drawing 951] | 20 nM |  | 108% |  |
| Cc1ccc(CNC(=O)c2ccc3c(c2)N=C(c2sccc2C)c2ccccc2S3)o1 [drawing 953] | 20 nM | 79% |  |  |

| SMILES | IC50 [1] | Emax (Appendix A) | % Inhibition (Appendix A) | IC50 (pIC50, Appendix A) |
| --- | --- | --- | --- | --- |
| O=C(NCc1ccccc1Cl)c1ccc2c(c1)N=C(c1cccc(Cl)c1)c1ccccc1S2 [drawing 955] | 20 nM | 102% |  |  |
| O=C(NN1CCCCC1)c1ccc2c(c1)N=C(c1ccc(Cl)cn1)c1ccccc1S2 [drawing 959] | 20 nM | 112% |  |  |
| O=C(NCc1ccc(F)cc1)c1ccc2c(c1)N=C(c1ccc(Cl)cc1)c1ccccc1S2(=O)=O [drawing 961] | 20 nM | 108% |  |  |
| COCCNC(=O)c1ccc2c(c1)N=C(c1ccc(Cl)s1)c1ccccc1S2 [drawing 963] | 20 nM |  | 95% |  |
| COc1ccc(C2=Nc3cc(C(=O)NCCC(C)C)ccc3Sc3ccccc32)cc1 [drawing 965] | 20 nM | 104% |  |  |
| CC(C)CCNC(=O)c1ccc2c(c1)N=C(c1ccccn1)c1ccccc1S2 [drawing 967] | 20 nM |  |  |  |
| CCCNC(=O)c1ccc2c(c1)N=C(c1ccc(Cl)cc1)c1ccccc1S2 [drawing 969] | 20 nM |  | 105% |  |
| Cc1ccc(N2CCN(C(=O)c3ccc4c(c3)N=C(c3ccc(Cl)cc3)c3ccccc3S4)CC2)c(C)c1 [drawing 970] | 316 nM | 94% |  |  |
| O=C(NCCc1cccc(Cl)c1)c1ccc2c(c1)N=C(N1CCCCC1)c1ccccc1S2 [drawing 973] | 20 nM | 108% |  |  |
| CCCC1=Nc2cc(C(=O)NC3CCC(C)CC3)ccc2Sc2ccccc21 (centres unmarked) [drawing 975] |  | 114% |  | 20 nM |
| O=C(NCc1ccncc1)c1ccc2c(c1)N=C(c1cccc(Br)c1)c1ccccc1S2 [drawing 977] | 20 nM | 95% |  |  |
| O=C(NCCc1cccnc1)c1ccc2c(c1)N=C(c1cccc(F)c1)c1ccccc1S2 [drawing 981] |  | 94% |  | 20 nM |
| CC(C)CNC(=O)c1ccc2c(c1)N=C(c1ccc(Cl)s1)c1ccc(Cl)cc1S2 [drawing 983] | 25.1 nM | 110% |  |  |
| CCCCNC(=O)c1ccc2c(c1)N=C(c1ccc(Cl)cc1)c1ccc(F)cc1S2 [drawing 985] | 25.1 nM | 109% |  |  |
| O=C(NN1CCCCC1)c1ccc2c(c1)N=C(C1CCCCC1)c1ccccc1S2 [drawing 987] |  |  | 101% |  |
| O=C(NN1CCCCC1)c1ccc2c(c1)N=C(c1ccc(Cl)c(Cl)c1)c1ccccc1S2 [drawing 989] | 25.1 nM | 105% |  |  |
| O=C(NN1CCCCC1)c1ccc2c(c1)N=C(c1ccc(Cl)c(F)c1)c1ccccc1S2 [drawing 991] | 25.1 nM | 110% |  |  |
| O=C(NN1CCCCC1)c1ccc2c(c1)N=C(c1ccc(Br)cc1)c1ccccc1S2 [drawing 993] | 25.1 nM | 92% |  |  |
| CCCCNC(=O)c1ccc2c(c1)N=C(c1ccc(Cl)s1)c1cc(Cl)ccc1S2 [drawing 995] | 25.1 nM | 107% |  |  |
| CCCCNC(=O)c1ccc2c(c1)N=C(c1cccc(Cl)c1)c1cc(Cl)ccc1S2 [drawing 997] | 25.1 nM | 110% |  |  |
| O=C(NCCc1ccccn1)c1ccc2c(c1)N=C(c1cccc(Cl)c1)c1ccccc1S2 [drawing 999] | 25.1 nM |  | 91% |  |
| O=C(NCCc1cccc(Cl)c1)c1ccc2c(c1)N=C(C1CCCCC1)c1ccccc1S2 [drawing 1001] | 25.1 nM | 102% |  |  |
| CCCC1=Nc2cc(C(=O)NCCc3ccc(Cl)cc3)ccc2Sc2ccccc21 [drawing 1003] |  | 110% |  | 25.1 nM |
| O=C(NCCc1ccccn1)c1ccc2c(c1)N=C(c1ccc(Cl)cc1)c1ccccc1S2 [drawing 1005] | 25.1 nM |  | 92% |  |
